{"source": "patent US6136847A", "about": "“Water-soluble trioxanes as potent and safe antimalarial agents” (Johns Hopkins University, priority 1999, dated 2000)", "key": {"[1]": {"tested_on": "mouse neuroblastoma cells", "conditions": "cited from earlier work"}, "[2]": {"tested_on": "Plasmodium falciparum", "test": "In vitro antimalarial assay (Plasmodium falciparum)", "format": "cell-based", "conditions": "for IC50: Plasmodium falciparum", "description": "(§1) The protozoan Plasmodium falciparum is a causative agent of malaria, the single most critical infectious disease of mankind. The in vitro antimalarial activity of the C3 -substituted trioxanes was determined according to the method described in Posner et al. (13). The in vivo antimalarial activity was determined as described in Peters et al. (14).\nTables 1 and 2 present a tabulation of a number of compounds which have been synthesized along with the IC50 (in nM)."}, "[3]": {"tested_on": "P. berghei", "test": "In vivo antimalarial assay, mice infected with P. berghei malaria", "conditions": "Plasmodium berghei", "description": "as §1"}, "[4]": {"test": "Water solubility in pH 7.4 aqueous solution", "format": "physicochemical"}, "[5]": {"tested_on": "erythrocytes", "test": "Hemolysis of erythrocytes on daily IV administration to rats for 14 days", "format": "in vivo, rat", "conditions": "daily for 14 days, artelinic acid even at a dose four-fold less than MHP-34a", "description": "4. They are nontoxic in therapeutic dose range."}, "[6]": {"tested_on": "rats", "conditions": "high doses; cited from earlier work"}, "[7]": {"conditions": "C3-Substituted C12-Methoxy Trioxanes, Expansion data (quadruplicate measurements), read-out: Antimalarial Activity, IC50 (Table 2)"}, "[8]": {"conditions": "C3-Aryl C12-Methoxy Trioxanes, Expansion data (quadruplicate measurements), read-out: Antimalarial Activity, IC50 (Table 1)"}, "[9]": {"conditions": "in vitro, read-out: In vitro antimalarial assay: IC50"}, "[10]": {"conditions": "IV, mice infected with P. berghei, read-out: ED90, IV administration"}}, "note": "Read-outs that look alike come from different tables or passages of the source."}
{"molecule": "C[C@H]1[C@@H](O)O[C@@H]2O[C@@]3(C)CC[C@H]4[C@H](C)CC[C@@H]1[C@@]24OO3", "note": "[dihydroartemesisin, Dihydroartemisinin]", "values": [{"measurement": "neurotoxicity in mouse neuroblastoma cells", "setting": "[1]", "result": "neurotoxicity has been seen"}]}
{"molecule": "CO[C@@H]1O[C@@]2(CF)CC[C@H]3CCCC[C@]31OO2", "note": "(relative stereo) [118a]", "values": [{"measurement": "IC50", "setting": "[2]; [7]", "result": 0.32, "unit": "µM"}]}
{"molecule": "COc1ccc(C23CCC4CCCCC4(OO2)C(OC)O3)cc1", "note": "(stereo not drawn) [compound 11]", "values": [{"measurement": "IC50", "setting": "[2]; [8]", "result": "> 2.5", "unit": "µM"}]}
{"molecule": "CO[C@@H]1O[C@@]2(c3ccc(C(=O)O)cc3)CC[C@H]3CCCC[C@]31OO2", "note": "(relative stereo) [MHP-34a, 3-(4'-Carboxyphenyl)-12α-methoxy Trioxane]", "values": [{"measurement": "IC50", "setting": "[2]; [9]", "result": 1.02, "unit": "µM"}, {"measurement": "ED50", "setting": "[3]; po, read-out: In vivo antimalarial assay: ED50, oral", "result": 9.5, "unit": "mg/kg"}, {"measurement": "ED50", "setting": "[3]; sc, read-out: In vivo antimalarial assay: ED50, subcutaneous", "result": 19.5, "unit": "mg/kg"}, {"measurement": "ED90", "setting": "[3]; sc, read-out: In vivo antimalarial assay: ED90, subcutaneous", "result": 92, "unit": "mg/kg/day"}, {"measurement": "ED90", "setting": "[3]; [10]", "result": 60, "unit": "mg/kg/day"}, {"measurement": "ED90", "setting": "[3]; oral, mice infected with P. berghei, read-out: In vivo antimalarial assay: ED90, oral", "result": 46, "unit": "mg/kg/day"}, {"measurement": "solubility", "setting": "[4]", "result": "~90", "unit": "mM"}, {"measurement": "hemolysis of erythrocytes", "setting": "[5]", "result": "no hemolysis of erythrocytes"}]}
{"molecule": "CO[C@@H]1O[C@@]2(c3ccc(-c4ccccc4)cc3)CC[C@H]3CCCC[C@]31OO2", "note": "(relative stereo) [8a]", "values": [{"measurement": "IC50", "setting": "[2]; [8]", "result": 0.076, "unit": "µM"}]}
{"molecule": "CO[C@@H]1O[C@@]2(c3ccc(C(F)(F)F)cc3)CC[C@H]3CCCC[C@]31OO2", "note": "(relative stereo) [120a]", "values": [{"measurement": "IC50", "setting": "[2]; [7]", "result": 0.039, "unit": "µM"}]}
{"molecule": "CO[C@H]1O[C@@]2(c3ccc(-c4ccccc4)cc3)CC[C@H]3CCCC[C@]31OO2", "note": "(relative stereo) [8b]", "values": [{"measurement": "IC50", "setting": "[2]; [8]", "result": 0.068, "unit": "µM"}]}
{"molecule": "CO[C@H]1O[C@@]2(c3ccc(F)cc3)CC[C@H]3CCCC[C@]31OO2", "note": "(relative stereo) [9b]", "values": [{"measurement": "IC50", "setting": "[2]; [8]", "result": 0.03, "unit": "µM"}]}
{"molecule": "CO[C@H]1O[C@@]2(c3ccc(F)cc3C)CC[C@H]3CCCC[C@]31OO2", "note": "(relative stereo) [10b]", "values": [{"measurement": "IC50", "setting": "[2]; [8]", "result": 0.034, "unit": "µM"}]}
{"molecule": "C[C@H]1[C@H](c2cccn2CC(=O)O)O[C@@H]2O[C@@]3(C)CC[C@H]4[C@H](C)CC[C@@H]1[C@@]24OO3", "note": "[MHP-153, 10a-(1'-(Carboxymethyl)pyrrol-2'-yl)-10-deoxoartemisinin]", "values": [{"measurement": "IC50", "setting": "[2]; [9]", "result": 0.036, "unit": "µM"}]}
{"molecule": "CO[C@H]1O[C@@H]2O[C@@]3(C)CC[C@H]4[C@H](C)CC[C@@H]([C@H]1C)[C@@]24OO3", "note": "[artemether]", "values": [{"measurement": "neurotoxicity in rats", "setting": "[6]", "result": "neurotoxicity has been seen"}]}
{"molecule": "C[C@H]1[C@@H](OCc2ccc(C(=O)O)cc2)O[C@@H]2O[C@@]3(C)CC[C@H]4[C@H](C)CC[C@@H]1[C@@]24OO3", "note": "[artelinic acid, Artelinic acid, reference compound]", "values": [{"measurement": "ED50", "setting": "[3]; oral, mice infected with P. berghei, comparator, read-out: SD50, oral", "result": 56, "unit": "mg/kg"}, {"measurement": "solubility", "setting": "[4]", "result": "~2", "unit": "mM"}, {"measurement": "hemolysis of erythrocytes", "setting": "[5]", "result": "time-dependent hemolysis"}]}
{"molecule": "CO[C@H]1O[C@@]2(c3ccc(C(=O)O)cc3)CC[C@H]3CCCC[C@]31OO2", "note": "(relative stereo) [MHP-34b, 3-(4'-Carboxyphenyl)-12β-methoxy Trioxane]", "values": [{"measurement": "IC50", "setting": "[2]; [9]", "result": 0.15, "unit": "µM"}, {"measurement": "ED90", "setting": "[3]; [10]", "result": 60, "unit": "mg/kg/day"}, {"measurement": "solubility", "setting": "[4]", "result": "~60", "unit": "mM"}]}
{"molecule": "C[C@@H]1CC[C@H]2[C@@H](C)C(=O)O[C@@H]3O[C@@]4(C)CC[C@@H]1[C@]32OO4", "note": "[Artemisinin, artemisinin, reference compound]", "values": [{"measurement": "IC50", "setting": "[2]; [9]", "result": 0.01, "unit": "µM"}]}
{"molecule": "CO[C@@H]1O[C@@]2(c3ccco3)CC[C@H]3CCCC[C@]31OO2", "note": "(relative stereo) [compound 13]", "values": [{"measurement": "IC50", "setting": "[2]; [8]", "result": 0.6, "unit": "µM"}]}
{"molecule": "CO[C@@H]1O[C@@]2(c3ccccc3)CC[C@H]3CCCC[C@]31OO2", "note": "(relative stereo) [16a]", "values": [{"measurement": "IC50", "setting": "[2]; [8]", "result": 0.1, "unit": "µM"}]}
{"molecule": "CO[C@H]1O[C@@]2(CF)CC[C@H]3CCCC[C@]31OO2", "note": "(relative stereo) [118b]", "values": [{"measurement": "IC50", "setting": "[2]; [7]", "result": 0.16, "unit": "µM"}]}
{"molecule": "CCOC(=O)Cn1cccc1[C@@H]1O[C@@H]2O[C@@]3(C)CC[C@H]4[C@H](C)CC[C@@H]([C@H]1C)[C@@]24OO3", "note": "[MHP-84, 10a-(1'-(Ethoxycarbonylmethyl)pyrrol-2'-yl)-10-deoxoartemisinin]", "values": [{"measurement": "IC50", "setting": "[2]; printed as In vivo, read-out: In vitro antimalarial assay: IC50", "result": 0.0091, "unit": "µM"}]}
{"molecule": "CO[C@H]1O[C@@]2(c3ccc(C(F)(F)F)cc3)CC[C@H]3CCCC[C@]31OO2", "note": "(relative stereo) [120b]", "values": [{"measurement": "IC50", "setting": "[2]; [7]", "result": 0.053, "unit": "µM"}]}
{"molecule": "O=C(O)c1ccc(CO[C@H]2O[C@@]3(c4ccc(F)cc4)CC[C@H]4CCCC[C@]42OO3)cc1", "note": "(relative stereo) [(p-Carboxy)benzyloxy Trioxane (β)-7a]", "values": [{"measurement": "IC50", "setting": "[2]; [9]", "result": 0.04, "unit": "µM"}]}
{"molecule": "O=C(O)c1ccc(CO[C@@H]2O[C@@]3(c4ccc(F)cc4)CC[C@H]4CCCC[C@]42OO3)cc1", "note": "(relative stereo) [(p-Carboxy)benzyloxy Trioxane (α)-7a]", "values": [{"measurement": "IC50", "setting": "[2]; [9]", "result": 0.047, "unit": "µM"}]}
{"molecule": "CO[C@H]1O[C@@]2(c3ccc(CO)cc3)CC[C@H]3CCCC[C@]31OO2", "note": "(relative stereo) [12b]", "values": [{"measurement": "IC50", "setting": "[2]; [8]", "result": 0.015, "unit": "µM"}]}
{"molecule": "C[C@H]1[C@H](C(=O)O)O[C@@H]2O[C@@]3(C)CC[C@H]4[C@H](C)CC[C@@H]1[C@@]24OO3", "note": "[MHP-108, 10α-Carboxy-10-deoxoartemisinin]", "values": [{"measurement": "IC50", "setting": "[2]; [9]", "result": 0.57, "unit": "µM"}]}
{"molecule": "CO[C@@H]1O[C@@]2(c3ccc(F)cc3C)CC[C@H]3CCCC[C@]31OO2", "note": "(relative stereo) [10a]", "values": [{"measurement": "IC50", "setting": "[2]; [8]", "result": 0.099, "unit": "µM"}]}
{"molecule": "CO[C@H]1O[C@@]2(c3ccccc3)CC[C@H]3CCCC[C@]31OO2", "note": "(relative stereo) [16b]", "values": [{"measurement": "IC50", "setting": "[2]; [8]", "result": 0.038, "unit": "µM"}]}
{"molecule": "CO[C@@H]1O[C@@]2(c3ccc(F)cc3)CC[C@H]3CCCC[C@]31OO2", "note": "(relative stereo) [9a]", "values": [{"measurement": "IC50", "setting": "[2]; [8]", "result": 0.065, "unit": "µM"}]}
{"molecule": "COC1OC2(CCC(C)C)CCC3CCCCC31OO2", "note": "(stereo not drawn) [C3 -(CH3)2 CHCH2 CH2 analog]", "values": [{"measurement": "potency increased by a factor of, over the C3 methyl analog", "setting": "[2]; relative to C3 methyl analog", "result": 5}]}
{"molecule": "CO[C@@H]1O[C@@]2(c3ccc(CO)cc3)CC[C@H]3CCCC[C@]31OO2", "note": "(relative stereo) [12a]", "values": [{"measurement": "IC50", "setting": "[2]; [8]", "result": 0.078, "unit": "µM"}]}
